For data set [1] the following is noted: prior art U.S. Pat. No. 4,169,888, EP-A-0154445, EP-A-0339681; cited from earlier work.
The next data set deals with Sarcoma 180 tumor cells. Kind of data set: Therapeutic Effect against Sarcoma 180 Tumor Cells. It counts as in vivo, male ddY-strain mice. The settings on record: intravenous, seven days after implantation. The protocol: Five male ddY-strain mice each having a weight of 18 to 20 g were used for each group as test animals, and 5×10^5 Sarcoma 180 tumor cells were implanted subcutaneously into the animals at the axilla. Ond day after the implantation, 0.2 ml of physiological saline containing a test compound in the concentration indicated in Table 3 was intravenously administered to each mouse. T/C [T: average tumor volume (mm^3) of the groups treated with the test compound, C: that of the control group which received an intravenous administration of 0.2 ml of physiological saline] was determined seven days after the implantation.

The next data set relates to dd strain male mice. In words: Acute Toxicity Test. The class given is in vivo. The settings on record: intraperitoneal, 14 days after administration. On the procedure: A test compound was intraperitoneally administered to dd strain male mice each weighing 20 ±1 g. MLD (the minimum lethal dose) was determined by observing the mortality for 14 days after the administration.

A further data set deals with various bacteria. The settings on record: prior art WO 87/06265, EP-A-0351865, JP 139590/89; cited from earlier work.
Data set [2] concerns lymphocytic leukemia P388. Conditions: prior art WO 87/06265, EP-A-0351865, JP 139590/89; cited from earlier work.

As for `COc1c(O)c2c(c3cc(C(=O)N4CCc5c4c(O)c(OC)c4[nH]c(C(=O)N6CC7CC78C6=CC(=O)c6[nH]cc(C)c68)cc54)[nH]c13)CCN2C(N)=O` (centres unmarked) [CC-1065], the anti-tumor activity result in data set [1] is on record as “exhibit anti-tumor activity”.

`COC(=O)c1c(C)[nH]c2c(O[Si](C)(C)C(C)(C)C)cc3c(c12)C(CBr)CN3C(=O)c1cc2cc(OC)c(OC)c(OC)c2[nH]1` (centres unmarked) [Compound 1]: the “Sarcoma 180 T/C (average tumor volume, treated/control)” value in the data set with Sarcoma 180 tumor cells (dose 0.25 mg/kg) was determined as 0.043. For the same molecule, in the data set with dd strain male mice, the “Acute Toxicity (MLD), minimum lethal dose” value (“Acute Toxicity (MLD)” for short) was found to be 1.0 mg/kg.

For `COC(=O)c1c(C)[nH]c2c(O)cc3c(c12)C(CCl)CN3C(=O)c1cc2cc(OC)c(OC)c(OC)c2[nH]1` (centres unmarked) [Compound 2], in the data set on dd strain male mice, the “Acute Toxicity (MLD)” value came out at 1.0 mg/kg.

Take `COC(=O)c1c(C)[nH]c2c1C13CC1CN(C(=O)c1cc4cc(OC)c(OC)c(OC)c4[nH]1)C3=CC2=O` (centres unmarked) [Compound 4]: the “Sarcoma 180 T/C (average tumor volume, treated/control)” value in the data set with Sarcoma 180 tumor cells (dose 0.25 mg/kg) worked out at 0.21. The “Acute Toxicity (MLD)” value in the data set on dd strain male mice was 0.5 mg/kg.

As to `COC(=O)c1c(C)[nH]c2c(OC(=O)N(C)C)cc3c(c12)C(CBr)CN3C(=O)c1cc2cc(OC)c(OC)c(OC)c2[nH]1` (centres unmarked) [Compound 13], the “Sarcoma 180 T/C (average tumor volume, treated/control)” value with Sarcoma 180 tumor cells (dose 1.0 mg/kg) amounted to 0.063. Besides, in the data set with dd strain male mice, the “Acute Toxicity (MLD)” value stood at 1.0 mg/kg.

With `COC(=O)c1c(C)[nH]c2c(OC(=O)N3CCCCC3)cc3c(c12)C(CBr)CN3C(=O)c1cc2cc(OC)c(OC)c(OC)c2[nH]1` (centres unmarked) [Compound 14], the “Sarcoma 180 T/C (average tumor volume, treated/control)” value with Sarcoma 180 tumor cells (dose 0.50 mg/kg) amounted to 0.20; with Sarcoma 180 tumor cells (dose 1.0 mg/kg) it was 0.098. In the data set with dd strain male mice, the “Acute Toxicity (MLD)” value was 1.0 mg/kg.

Consider `COC(=O)c1c(C)[nH]c2c(OC(=O)N3CCCC3)cc3c(c12)C(CBr)CN3C(=O)c1cc2cc(OC)c(OC)c(OC)c2[nH]1` (centres unmarked) [Compound 15], for which the “Sarcoma 180 T/C (average tumor volume, treated/control)” value with Sarcoma 180 tumor cells (dose 0.50 mg/kg) came to 0.21; in the data set on Sarcoma 180 tumor cells (dose 1.0 mg/kg), 0.088. In the data set with dd strain male mice, the “Acute Toxicity (MLD)” value was 1.0 mg/kg.

`COC(=O)c1c(C)[nH]c2c(OC(=O)N3CCN(C)CC3)cc3c(c12)C(CBr)CN3C(=O)c1cc2cc(OC)c(OC)c(OC)c2[nH]1` (centres unmarked) [Compound 16]: the “Sarcoma 180 T/C (average tumor volume, treated/control)” value in the data set with Sarcoma 180 tumor cells (dose 0.50 mg/kg, 0.5 mg/kg) amounted to 0.24. Moreover, the “Acute Toxicity (MLD)” value in the data set on dd strain male mice was 1.0 mg/kg.

As for `COC(=O)c1c(C)[nH]c2c(OC(=O)N3CCN(C)CC3)cc3c(c12)C(CBr)CN3C(=O)c1cc2cc(OC)c(OC)c(OC)c2[nH]1` (centres unmarked) [Compound 18], the “Sarcoma 180 T/C (average tumor volume, treated/control)” value in the data set on Sarcoma 180 tumor cells (dose 0.50 mg/kg, 0.5 mg/kg) came out at 0.14. In the data set with dd strain male mice, the “Acute Toxicity (MLD)” value was found to be 0.84 mg/kg.

`COC(=O)C1(C)NC2=C(C1=O)C13CC1CN(C(=O)c1cc4cc(OC)c(OC)c(OC)c4[nH]1)C3=CC2=O` (centres unmarked) [DC-88A]: the antibacterial activity entry in the data set on various bacteria was “antibacterial activity against various bacteria”. The “anti-tumor activity against lymphocytic leukemia P388” value in data set [2] is “anti-tumor activity against lymphocytic leukemia P388”.

The record behind these values is patent publication US5070092A, “Pyrroloindole derivatives related to DC-88A compound” (Kyowa Hakko Kogyo Co., Ltd., priority 1989, dated 1991).
